Source: patent EP4624457A1, “I[…] DERIVATIVES, I[…] NEURODEGENERATIVE DISEASES” (Centre National de la Recherche Scientifique, priority 2024, dated 2025)

Legend:
cancer cell lines = conditions: literature (Tang et al. 2023; Fribley et al. 2019); cited from earlier work
[1] = target: muscle (α1)2βγδ nAChR subtype (Torpedo marmorata, UniProt P02711+Q6S3H8+Q6S3H9); conditions: antagonistic activity, TEVC; value (95% CI); read-out: nAChR subtype (nM; 95% CI) α12β1γδ (Torpedo); cited from earlier work
Chain of muscle (α1)2βγδ nAChR subtype (P02711 25-461): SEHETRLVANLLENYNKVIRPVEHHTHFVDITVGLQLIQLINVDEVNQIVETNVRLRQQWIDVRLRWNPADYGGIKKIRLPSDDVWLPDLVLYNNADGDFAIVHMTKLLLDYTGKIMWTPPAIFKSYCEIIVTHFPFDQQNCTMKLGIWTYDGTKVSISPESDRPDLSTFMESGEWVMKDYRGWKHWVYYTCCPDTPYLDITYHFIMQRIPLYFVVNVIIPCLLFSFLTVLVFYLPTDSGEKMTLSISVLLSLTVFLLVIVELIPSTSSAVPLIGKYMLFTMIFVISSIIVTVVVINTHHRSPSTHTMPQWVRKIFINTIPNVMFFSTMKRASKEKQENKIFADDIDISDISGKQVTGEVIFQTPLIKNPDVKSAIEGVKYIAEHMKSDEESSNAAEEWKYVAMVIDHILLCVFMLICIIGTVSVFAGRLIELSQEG
Chain of muscle (α1)2βγδ nAChR subtype (Q6S3H9 entry or part of it): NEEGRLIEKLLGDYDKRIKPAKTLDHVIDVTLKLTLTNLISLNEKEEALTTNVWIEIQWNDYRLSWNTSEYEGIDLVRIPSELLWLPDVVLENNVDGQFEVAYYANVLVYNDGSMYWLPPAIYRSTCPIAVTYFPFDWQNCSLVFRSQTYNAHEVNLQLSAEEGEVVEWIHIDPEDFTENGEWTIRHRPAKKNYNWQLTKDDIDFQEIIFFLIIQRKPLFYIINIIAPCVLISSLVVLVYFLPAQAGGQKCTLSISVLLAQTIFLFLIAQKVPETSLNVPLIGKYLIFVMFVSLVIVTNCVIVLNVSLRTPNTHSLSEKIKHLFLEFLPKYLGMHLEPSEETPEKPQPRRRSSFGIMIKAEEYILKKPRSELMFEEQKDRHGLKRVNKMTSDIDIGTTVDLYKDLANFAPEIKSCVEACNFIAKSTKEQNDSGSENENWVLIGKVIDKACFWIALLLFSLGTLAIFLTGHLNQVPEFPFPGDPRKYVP
Chain of muscle (α1)2βγδ nAChR subtype (Q6S3H8 entry or part of it): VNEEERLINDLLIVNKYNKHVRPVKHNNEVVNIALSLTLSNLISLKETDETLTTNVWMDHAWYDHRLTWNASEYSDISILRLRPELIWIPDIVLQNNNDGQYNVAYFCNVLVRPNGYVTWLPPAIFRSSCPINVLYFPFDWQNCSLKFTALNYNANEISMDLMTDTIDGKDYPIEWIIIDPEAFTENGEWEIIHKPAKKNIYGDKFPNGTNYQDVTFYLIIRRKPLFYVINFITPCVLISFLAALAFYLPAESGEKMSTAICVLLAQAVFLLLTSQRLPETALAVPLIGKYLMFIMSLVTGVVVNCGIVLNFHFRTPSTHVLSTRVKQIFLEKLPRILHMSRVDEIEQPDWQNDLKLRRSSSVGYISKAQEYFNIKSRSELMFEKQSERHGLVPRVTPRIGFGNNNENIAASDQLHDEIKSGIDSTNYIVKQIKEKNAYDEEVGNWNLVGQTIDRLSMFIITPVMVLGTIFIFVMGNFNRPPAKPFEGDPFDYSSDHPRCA
Chain of muscle (α1)2βγδ nAChR subtype (Q6S3I0 entry or part of it, further chain): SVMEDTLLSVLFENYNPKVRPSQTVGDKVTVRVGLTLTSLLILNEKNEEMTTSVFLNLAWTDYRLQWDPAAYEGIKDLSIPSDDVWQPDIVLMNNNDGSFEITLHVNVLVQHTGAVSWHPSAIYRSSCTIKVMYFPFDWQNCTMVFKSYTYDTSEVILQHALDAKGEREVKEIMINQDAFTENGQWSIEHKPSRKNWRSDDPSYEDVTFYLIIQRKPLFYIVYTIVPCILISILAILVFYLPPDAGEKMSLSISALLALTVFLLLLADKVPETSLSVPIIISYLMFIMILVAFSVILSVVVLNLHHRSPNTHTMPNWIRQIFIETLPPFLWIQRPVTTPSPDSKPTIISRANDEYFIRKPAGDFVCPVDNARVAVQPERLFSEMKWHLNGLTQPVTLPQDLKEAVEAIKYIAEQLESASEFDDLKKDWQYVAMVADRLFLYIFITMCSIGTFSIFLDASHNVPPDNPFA

human α7 nAChR subtype [2] = target: T1, human α7 nAChR subtype (Homo sapiens, UniProt P36544); conditions: antagonistic activity, TEVC; value (95% CI); cited from earlier work
T1 construct: expressed in transfected cells; host or cells: Xenopus laevis oocytes injected with mRNA
T1 sequence (P36544 23-502): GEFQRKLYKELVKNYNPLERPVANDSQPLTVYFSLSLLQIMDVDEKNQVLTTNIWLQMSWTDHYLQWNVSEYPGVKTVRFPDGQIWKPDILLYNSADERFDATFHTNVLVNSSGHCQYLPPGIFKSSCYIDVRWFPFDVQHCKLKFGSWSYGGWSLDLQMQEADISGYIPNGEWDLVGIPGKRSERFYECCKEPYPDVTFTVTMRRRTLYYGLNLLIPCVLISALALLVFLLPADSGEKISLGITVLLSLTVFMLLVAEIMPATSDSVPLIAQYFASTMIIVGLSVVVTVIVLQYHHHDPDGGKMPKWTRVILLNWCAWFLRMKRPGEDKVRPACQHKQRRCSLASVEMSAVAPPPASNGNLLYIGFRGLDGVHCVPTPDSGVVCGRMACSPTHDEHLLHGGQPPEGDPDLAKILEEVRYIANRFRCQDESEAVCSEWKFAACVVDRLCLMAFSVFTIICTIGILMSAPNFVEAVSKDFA

P338 leukemia cell line = conditions: mouse P338 leukemia cell line; cited from earlier work
human α7 nAChR subtype [3] = target: T1, human α7 nAChR subtype; test: Two-electrode voltage clamp electrophysiology on Xenopus laevis oocytes expressing the α7 nAChR; type: cell-based
Excerpt: The emerging cyclic imines toxins (CiTXs) of global distribution across coastal environments that are produced by dinoflagellates move fast up the human food chain through shellfish. The CiTX family includes 44 compounds: 7 gymnodimines (A-E, 12-methylgymnodimine and 16-desmethyl gymnodimine D), 16 spirolides (A-D, G-I, 13-desmethyl spirolide-C, 27-Hydroxy-13-desmethyl spirolide-C, 13,19-didesmethyl spirolide-C, 20-hydroxy-13,19-didesmethyl spirolide- C, 27-hydroxy-13,19-spirolide-C, 27-Oxo-13,19-didesmethyl spirolide-C, 13-desmethyl spirolide-D, 20-hydroxy-13,19-didesmethyl spirolide-D and 20-methyl spirolide-G), 8 pinnatoxins (A-H), 3 pteriatoxins (A-C), 6 prorocentrolides (A-B, 4- hydroxyprorocentrolide, 9,51-dihydro prorocentrolide, 30-sulfate prorocentrolide and 14-O-acetyl-4-hydroxyprorocentrolide), 1 spiroprorocentrimine, 2 portimines (A and B), and 1 kabirimine, (Aráoz et al. (2020) Cyclic imine toxins survey in coastal european shellfish samples: Bioaccumulation and mode of action of 28-O-palmitoyl ester of pinnatoxin-G. First report of portimine-A bioaccumulation. Harmful Algae, 98 [1]). The spiroimine moiety is the major feature characterizing cyclic imine toxins. The exception to this rule is prorocentrolides in which a hexahydroisoquinoline group replaces the spiroimine motif, (Torigoe et al. (1988) Prorocentrolide, a toxic nitrogenous macrocycle from a marine dinoflagellate, Prorocentrum-lima. Journal of the American Chemical Society, 110:7876-7877 [2]). Portimines display a 5-membered cyclic imine ring; gymnodimines, prorocentrolides, spiroprorocentrimines and kabirimine present a 6-membered imine ring, while spirolides, pinnatoxins and pteriatoxins display a 7-membered imine ring. Cyclic imine toxins are fast acting neurotoxins that, when administered intraperitoneally or by gavage at lethal doses, kill mice by respiratory arrest within minutes following blockade of neuromuscular nicotinic acetylcholine receptors (nAChR). The mode of action of several cyclic imines on nAChRs has been characterized, namely: gymnodimine-A, 13- desmethyl spirolide- C, 13,19-didesmethyl spirolide-C, 20-methyl spirolide-G, pinnatoxin-A, pinnatoxin-G, prorocentrolide-A and portimine, (Lamoise et al. (2017) Physico-chemical and functional characterization of portimine purified from Vulcanodinium rugosum strain IFR-VRU-01. In "Marine and Fresh-Water Harmful Algae". Proceedings of the 17th International Conference on Harmful Algae (Proença, L.A.O. and Hallegraeff, G. eds) pp. 126-129 ISSHA and IOC/UNESCO, Florianapolis; Molgó et al. (2017) Cyclic imine toxins from dinoflagellates: a growing family of potent antagonists of the nicotinic acetylcholine receptors. Journal of Neurochemistry, 142:41-51 [4]). They are potent antagonists of muscular and neuronal nicotinic acetylcholine receptors with pinnatoxin-A displaying picomolar affinities towards the α7 nicotinic acetylcholine receptor subtype (Aráoz et al. (2011) Total synthesis of pinnatoxins A and G and revision of the mode of action of pinnatoxin A. Journal of the American Chemical Society 133(27):10499-10511 [5]). In contrast, prorocentrolide and portimine show micromolar affinities towards the α7 nicotinic acetylcholine receptor subtype (Lamoise et al. (2017), Stivala et al. (2015) Synthesis and biology of cyclic imine toxins, an emerging class of potent, globally distributed marine toxins. Natural Product Reports, 32(3):411-435 [6]) (Table1). Table 1. Antagonistic activity of CiTX (Two-Electrodes Voltage Clamp electrophysiology).
• Figure 1 represents the chemical structure of ingrilimine according to compound (Illa) formula. • Figure 2 represents the cytotoxic activity of ingrilimine. A2780 ovarian and HT29 colorectal carcinoma cells were grown in RPMI 1640 supplemented with 10% fetal calf serum (FCS) and 1% glutamine. […]

α4β2 nAChR = α4β2 nAChR (Homo sapiens, UniProt P17787+P43681); conditions: antagonistic activity, TEVC; value (95% CI); read-out: nAChR subtype (nM; 95% CI) α4β2 (human); cited from earlier work
Chain of α4β2 nAChR (P43681 29-627): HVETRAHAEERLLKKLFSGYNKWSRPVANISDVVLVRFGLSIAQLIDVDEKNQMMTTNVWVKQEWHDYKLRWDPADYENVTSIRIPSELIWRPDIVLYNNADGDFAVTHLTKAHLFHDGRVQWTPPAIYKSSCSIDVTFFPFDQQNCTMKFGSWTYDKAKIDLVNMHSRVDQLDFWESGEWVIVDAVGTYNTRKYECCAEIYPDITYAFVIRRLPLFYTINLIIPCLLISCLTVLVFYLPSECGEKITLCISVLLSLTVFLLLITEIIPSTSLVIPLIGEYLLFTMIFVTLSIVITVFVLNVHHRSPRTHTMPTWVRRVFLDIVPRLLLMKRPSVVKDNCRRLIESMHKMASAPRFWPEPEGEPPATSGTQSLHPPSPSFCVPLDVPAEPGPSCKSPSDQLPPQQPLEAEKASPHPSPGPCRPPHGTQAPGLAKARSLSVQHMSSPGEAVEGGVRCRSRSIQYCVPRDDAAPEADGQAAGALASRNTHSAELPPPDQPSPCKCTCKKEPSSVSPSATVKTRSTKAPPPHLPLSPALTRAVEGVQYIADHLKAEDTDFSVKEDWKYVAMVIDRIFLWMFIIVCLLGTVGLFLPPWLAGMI
Chain of α4β2 nAChR (P17787 26-502): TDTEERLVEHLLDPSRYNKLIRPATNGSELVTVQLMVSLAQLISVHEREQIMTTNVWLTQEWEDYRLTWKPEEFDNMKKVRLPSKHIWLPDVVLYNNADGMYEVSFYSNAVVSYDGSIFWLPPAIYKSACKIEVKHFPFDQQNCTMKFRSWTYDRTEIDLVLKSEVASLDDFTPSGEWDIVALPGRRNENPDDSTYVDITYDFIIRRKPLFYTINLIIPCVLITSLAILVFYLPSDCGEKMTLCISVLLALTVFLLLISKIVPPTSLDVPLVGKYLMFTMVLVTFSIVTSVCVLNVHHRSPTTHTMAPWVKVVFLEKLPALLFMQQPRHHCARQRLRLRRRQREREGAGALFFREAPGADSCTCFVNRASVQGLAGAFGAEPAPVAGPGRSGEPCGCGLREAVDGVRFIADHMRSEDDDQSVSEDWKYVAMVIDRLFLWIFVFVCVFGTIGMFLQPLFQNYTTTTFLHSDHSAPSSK

[4] = tested on: 3T3, L929, 4T1 and Caco-2 cells; conditions: normal cell lines 3T3 and L929, tumor cell line 4T1, Caco-2 cells; cited from earlier work

Compound: portimine B
- cytotoxic activities, order of magnitude (cancer cell lines): ~10^-7 M

Compound: C=C1CCCC2OC(CC3=CC4/C(C)=C/CC(C)CC(/C=C(\C)C(O)C5CC(O)C(O)C(CCC(O)/C=C/C(C)=C/CCC6=NCCC(C3)C64C)O5)OC(=O)CC3CC(O)C(O3)C(O)C1)CC(O)C2O (stereo not shown) [Prorocentrolide]
- IC50 [1]: 186 nM
- IC50 (human α7 nAChR subtype [2]): 1660 nM

Compound: C=C1CCCC2=NC[C@H](C)[C@@H](C)C[C@@]23CCC([C@@H]2CCC(=O)O2)=C[C@@H]3[C@@H]2O[C@@]3(C[C@@H](C)C[C@H]2O3)C[C@@H]2O[C@]3(CC[C@@]4(O[C@@H](CC[C@@]4(C)O)C1)O3)C[C@H](C)[C@@H]2O [pinnatoxin-F]
- IC50 (P338 leukemia cell line): > 1000 nM

Compound: C=C1CCCC2=NC[C@H](C)[C@@H](C)C[C@@]23CCC(C(=O)O)=C[C@@H]3[C@@H]2O[C@]3(C[C@H]4CCC[C@@]5(CC[C@@]6(O[C@@H](CC[C@@]6(C)O)C1)O5)O4)C[C@@H](C)[C@@H](O)[C@H]2O3 [Pinnatoxine-A]
- antagonistic activity against human α7 nAChR, times more potent than towards muscle-type (α1)2β1γδ nAChR (human α7 nAChR subtype [3]; selectivity α7 vs muscle-type): 50 times
- antagonistic activity against human α7 nAChR, times more potent than against the human neuronal α4β2 nAChR subtype (human α7 nAChR subtype [3]; selectivity α7 vs α4β2): ~ 300 times
- IC50 [1]: 5.53 nM
- IC50 (human α7 nAChR subtype [2]): 0.107 nM
- IC50 (α4β2 nAChR): 30.4 nM

Compound: C=CC1=C[C@@H]2[C@@H]3O[C@]4(C[C@H]5CCC[C@@]6(CC[C@@]7(O[C@@H](CC[C@@]7(C)O)CC(=C)CCCC7=NC[C@H](C)[C@@H](C)C[C@@]72CC1)O6)O5)C[C@@H](C)[C@@H](O)[C@H]3O4 [Pinnatoxine-G]
- IC50 [1]: 3.82 nM
- IC50 (human α7 nAChR subtype [2]): 5.06 nM
- IC50 (α4β2 nAChR): 4.9 nM

Compound: 28-O-palmitoyl ester of pinnatoxin-G [Palmitate PnTX-G]
- IC50 [1]: 0.97 nM

Compound: C=C1CCCC2=NCC(C)C(C)CC23CCC(C2C=C(C)C(=O)O2)=C(C)C3/C=C(/C)C(O)CC2CCC3(CCC4(OC(CCC4(C)O)C1)O3)O2 (stereo not shown) [13-desmethyl spirolide-C]
- IC50 [1]: 0.51 nM
- IC50 (human α7 nAChR subtype [2]): 0.18 nM
- IC50 (α4β2 nAChR): 3.9 nM

Compound: 20-methyl spirolide-G
- IC50 [1]: 0.36 nM
- IC50 (human α7 nAChR subtype [2]): 0.48 nM
- IC50 (α4β2 nAChR): 2.1 nM

Compound: C=C1CCCC2=NCC(C)C(C)CC23CCC(C2C=C(C)C(=O)O2)=C(C)C3/C=C(\C)C(O)CC2CCC3(CCC4(OC(CCC4O)C1)O3)O2 (stereo not shown) [13,19-didesmethyl spirolide-C]
- IC50 [1]: 0.2 nM
- IC50 (human α7 nAChR subtype [2]): 0.25 nM
- IC50 (α4β2 nAChR): 6.26 nM

Compound: Gymnodimine-A
- IC50 [1]: 2.8 nM
- IC50 (α4β2 nAChR): 0.9 nM
- cytotoxic, concentration region [4]: micromolar region
